In PubChem BioAssay AID298 (DTP/NCI, 2004):
Several values for one entry are separate records, joined by “and”; a condition that tells them apart may be missing. Identical values can stand only once. Records with an inconclusive call do not appear.

Test system: MX-1 breast xenograft, intrarenal, nude mice, tumor weight
Experiment: NCI In Vivo Anticancer Drug Screen. Data for tumor model Human Mammary Carcinoma MX-1 Xenograft (intrarenal inoculation) in NU/NU BALB/C (nude) mice
Conditions: endpoint: mean tumor weight change, higher = larger tumour
How it was run: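 Antitumor activity is expressed as a T/C ratio. The treated group's tumor size or survival is compared against the vehicle-treated control group in mice bearing transplanted tumors.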

[1] = dose: 600.0 mg/kg/injection, schedule: Q04DX003 (sc), vehicle: saline with Tween-80
[2] = dose: 300.0 mg/kg/injection, schedule: Q04DX003 (ip), vehicle: saline with Tween-80

COC(=O)NC1C(C)OC(OC2C/C=C(/C)C3C=CC4C(OC5CC(OC6CC(O)C(OC7CC(O)C(OC)C(C)O7)C(C)O6)C(O)C(C)O5)C(C)CC(C)C4C3(C)/C(O)=C3\C(=O)OC4(CC(C)C(CO)=CC4/C=C\2C)C3=O)CC1(C)[N+](=O)[O-] (configuration not stated)
T/C (dose: 75.0 mg/kg/injection, schedule: Q04DX003 (ip), vehicle: Klucel (hydroxypropylcellulose) (HPC)): 110 % of control
T/C (dose: 150.0 mg/kg/injection, schedule: Q04DX003 (ip), vehicle: Klucel (hydroxypropylcellulose) (HPC)): 108 % of control

CNNCc1ccc(C(=O)NC(C)C)cc1
T/C (dose: 50.0 mg/kg/injection, schedule: Q01DX010 (sc), vehicle: saline): 97 % of control
T/C (dose: 100.0 mg/kg/injection, schedule: Q01DX010 (sc), vehicle: saline): 70 % of control
T/C (dose: 200.0 mg/kg/injection, schedule: Q01DX010 (sc), vehicle: saline): 45 % of control
T/C (dose: 400.0 mg/kg/injection, schedule: Q01DX010 (sc), vehicle: saline): 4 % of control

CC1=CC(=Nc2ccc(N(CCCl)CCCl)cc2)C=C(C)C1=O
T/C (dose: 300.0 mg/kg/injection, schedule: Q04DX003 (sc), vehicle: Klucel (hydroxypropylcellulose) (HPC)): -11 % of control
T/C (dose: 600.0 mg/kg/injection, schedule: Q04DX003 (sc), vehicle: Klucel (hydroxypropylcellulose) (HPC)): -12 % of control
T/C (dose: 1200.0 mg/kg/injection, schedule: Q04DX003 (sc), vehicle: Klucel (hydroxypropylcellulose) (HPC)): 1 % of control
T/C (dose: 2400.0 mg/kg/injection, schedule: Q04DX003 (sc), vehicle: Klucel (hydroxypropylcellulose) (HPC)): -20 % of control

CC#CCOCC(O)CCl (configuration not stated)
T/C (dose: 150.0 mg/kg/injection, schedule: Q04DX003 (ip), vehicle: suspension in saline): 91 % of control and 97 % of control
T/C (dose: 300.0 mg/kg/injection, schedule: Q04DX003 (ip), vehicle: suspension in saline): 97 % of control

CC(=O)ON(C(C)=O)c1ccc(C(N)=O)cc1
T/C [1]: 52 % of control
T/C (dose: 2400.0 mg/kg/injection, schedule: Q04DX003 (sc), vehicle: saline with Tween-80): 98 % of control

CC1OC(O[C@H]2/C=C/C=C/C=C/C=C/C=C/C=C/C=C/[C@H](C)[C@@H](O)[C@@H](C)[C@H](C)OC(=O)C[C@H](O)C[C@H](O)CC[C@@H](O)[C@H](O)C[C@H](O)C[C@]3(O)C[C@H](O)[C@@H](C(=O)O)[C@H](C2)O3)C(O)C(N)C1O (some centres not stated)
T/C (dose: 12.5 mg/kg/injection, schedule: Q04DX003 (ip), vehicle: suspension in saline): 61 % of control
T/C (dose: 25.0 mg/kg/injection, schedule: Q04DX003 (ip), vehicle: suspension in saline): 57 % of control
T/C (dose: 50.0 mg/kg/injection, schedule: Q04DX003 (ip), vehicle: suspension in saline): 77 % of control
T/C (dose: 100.0 mg/kg/injection, schedule: Q04DX003 (ip), vehicle: suspension in saline): 84 % of control and 89 % of control
T/C (dose: 200.0 mg/kg/injection, schedule: Q04DX003 (ip), vehicle: suspension in saline): 73 % of control
T/C (dose: 400.0 mg/kg/injection, schedule: Q04DX003 (ip), vehicle: suspension in saline): 79 % of control

CCN(CC)Cc1cc2[nH]c3c4ccc(Cl)cc4ncc3c2cc1OC
T/C (dose: 75.0 mg/kg/injection, schedule: Q04DX003 (sc), vehicle: saline with Tween-80): 92 % of control
T/C (dose: 300.0 mg/kg/injection, schedule: Q04DX003 (sc), vehicle: saline with Tween-80): 73 % of control

O=CC(NC(=O)N(CCCl)N=O)C(O)C(O)C(O)CO (configuration not stated)
T/C (dose: 3.0 mg/kg/injection, schedule: Q01DX010 (sc), vehicle: Klucel (hydroxypropylcellulose) (HPC)): 59 % of control
T/C (dose: 6.0 mg/kg/injection, schedule: Q01DX010 (sc), vehicle: Klucel (hydroxypropylcellulose) (HPC)): 51 % of control

CCOC(=O)C1=C(C)O/C(=C/c2cccc(Cl)c2)C1=O
T/C (dose: 150.0 mg/kg/injection, schedule: Q04DX003 (ip), vehicle: saline with Tween-80): 62 % of control

O=C(Nc1ccccc1)c1c(O)[nH]c(=O)[nH]c1=O
T/C (dose: 100.0 mg/kg/injection, schedule: Q04DX003 (ip), vehicle: saline with Tween-80): 102 % of control
T/C (dose: 200.0 mg/kg/injection, schedule: Q04DX003 (ip), vehicle: saline with Tween-80): 71 % of control
T/C (dose: 400.0 mg/kg/injection, schedule: Q04DX003 (ip), vehicle: saline with Tween-80): 57 % of control

NCCCNCCCCNC(=O)C(O)NC(=O)CCCCCCN=C(N)N (configuration not stated)
T/C (dose: 25.0 mg/kg/injection, schedule: Q04DX003 (ip), vehicle: saline with Tween-80): 69 % of control

COc1ccc(N=N/N=c2\sc3cc(OC)ccc3n2C)cc1
T/C (dose: 30.0 mg/kg/injection, schedule: Q04DX003 (ip), vehicle: saline with Tween-80): 68 % of control
T/C (dose: 60.0 mg/kg/injection, schedule: Q04DX003 (ip), vehicle: saline with Tween-80): 87 % of control
T/C (dose: 120.0 mg/kg/injection, schedule: Q04DX003 (ip), vehicle: saline with Tween-80): 65 % of control
T/C (dose: 240.0 mg/kg/injection, schedule: Q04DX003 (ip), vehicle: saline with Tween-80): 62 % of control

O=C1C=CN(C2OC(CO)C(O)C2O)C(=O)C1 (configuration not stated)
T/C (dose: 90.0 mg/kg/injection, schedule: Q01DX009 (ip), vehicle: saline): 65 % of control
T/C (dose: 133.4 mg/kg/injection, schedule: Q01DX009 (ip), vehicle: saline): 98 % of control
T/C (dose: 200.0 mg/kg/injection, schedule: Q01DX009 (ip), vehicle: saline): 89 % of control
T/C (dose: 300.0 mg/kg/injection, schedule: Q01DX009 (ip), vehicle: saline): 36 % of control

Clc1ccccc1C(Nc1cnccn1)Nc1cnccn1
T/C [2]: 70 % of control and 89 % of control

NC(=O)c1c[se]c(C2OC(CO)C(O)C2O)n1 (configuration not stated)
T/C (dose: 75.0 mg/kg/injection, schedule: Q04DX003 (ip), vehicle: water): 88 % of control
T/C (dose: 150.0 mg/kg/injection, schedule: Q04DX003 (ip), vehicle: water): 61 % of control
T/C (dose: 300.0 mg/kg/injection, schedule: Q04DX003 (ip), vehicle: water): 50 % of control
T/C (dose: 600.0 mg/kg/injection, schedule: Q04DX003 (ip), vehicle: water): 43 % of control

COc1ccc2c(c1)-c1nn(CCCN(C)C)c3ccc([N+](=O)[O-])c(c13)N2
T/C (dose: 12.5 mg/kg/injection, schedule: Q04DX003 (ip), vehicle: water): 66 % of control and 79 % of control
T/C (dose: 25.0 mg/kg/injection, schedule: Q04DX003 (ip), vehicle: water): 53 % of control and 56 % of control
T/C (dose: 50.0 mg/kg/injection, schedule: Q04DX003 (ip), vehicle: water): 19 % of control and 38 % of control and 41 % of control
T/C (dose: 100.0 mg/kg/injection, schedule: Q04DX003 (ip), vehicle: water): 13 % of control

COC(=O)Nc1nc2ccc(C3(c4ccc(F)cc4)OCCO3)cc2[nH]1
T/C [1]: 190 % of control

CS(=O)(=O)CS(=O)(=O)OCCCl
T/C (dose: 21.6 mg/kg/injection, schedule: Q04DX003 (ip), vehicle: other): 61 % of control
T/C (dose: 36.0 mg/kg/injection, schedule: Q04DX003 (ip), vehicle: other): 28 % of control
T/C (dose: 37.5 mg/kg/injection, schedule: Q04DX003 (sc), vehicle: suspension in saline): 106 % of control
T/C (dose: 60.0 mg/kg/injection, schedule: Q04DX003 (ip), vehicle: other): 25 % of control
T/C (dose: 75.0 mg/kg/injection, schedule: Q04DX003 (sc), vehicle: suspension in saline): 106 % of control
T/C (dose: 99.6 mg/kg/injection, schedule: Q04DX003 (ip), vehicle: dextrose): 100 % of control
T/C (dose: 99.6 mg/kg/injection, schedule: Q04DX003 (ip), vehicle: other): 19 % of control
T/C (dose: 100.0 mg/kg/injection, schedule: Q04DX003 (ip), vehicle: other): 43 % of control
T/C (dose: 150.0 mg/kg/injection, schedule: Q04DX003 (sc), vehicle: suspension in saline): 54 % of control
T/C (dose: 166.0 mg/kg/injection, schedule: Q04DX003 (ip), vehicle: dextrose): 37 % of control
T/C (dose: 166.0 mg/kg/injection, schedule: Q04DX003 (ip), vehicle: other): 13 % of control
T/C (dose: 166.7 mg/kg/injection, schedule: Q04DX003 (ip), vehicle: other): 20 % of control
T/C (dose: 276.67 mg/kg/injection, schedule: Q04DX003 (ip), vehicle: dextrose): 19 % of control
T/C (dose: 276.67 mg/kg/injection, schedule: Q04DX003 (ip), vehicle: other): 10 % of control

CSc1ncnc2c1ncn2C1OC(CO)C(O)C1O (configuration not stated)
T/C (dose: 75.0 mg/kg/injection, schedule: Q04DX003 (sc), vehicle: saline + alcohol): 1 % of control
T/C (dose: 150.0 mg/kg/injection, schedule: Q04DX003 (sc), vehicle: saline + alcohol): -97 % of control

CSCCC(N)C(=O)O (configuration not stated)
T/C [2]: 101 % of control
T/C (dose: 600.0 mg/kg/injection, schedule: Q04DX003 (ip), vehicle: saline with Tween-80): 85 % of control and 105 % of control
T/C (dose: 1200.0 mg/kg/injection, schedule: Q04DX003 (ip), vehicle: saline with Tween-80): 102 % of control and 112 % of control
T/C (dose: 2400.0 mg/kg/injection, schedule: Q04DX003 (ip), vehicle: saline with Tween-80): 91 % of control and 106 % of control
